These results are taken from patent US10301348B2, “Compounds for use in prevention and treatment of neurodegenerative diseases and pain” (Academia Sinica, priority 2013, dated 2019).

Usually Ki stands for the dissociation constant of the complex between target and ligand, obtained from inhibition or displacement. A high value points to weaker binding. As a reminder, the bioavailability is the share of a dose that reaches the circulation, judged against a reference dose that is usually intravenous. High values mean good availability, low ones poor availability. For orientation: inhibition means the relative decrease from the control value, in per cent.

“Also recorded” adds a separate entry of the source. Some results are limits rather than exact numbers.

Series [1] has as its system SCA3 transgenic mice expressing ataxin-3-Q79. Description: SCA3 transgenic mice: rotarod test and NeuN staining of pontine nuclei. Conditions: 4-month-old SCA3 transgenic mice.
Protocol: (A) SCA3 transgenic mice were given drinking water containing vehicle (0.2% DMSO) or T1-11 (0.1 mg/ml) beginning at 4 weeks-old.
Behavioral test. Balance and coordination functions of mice were determined by performing rotarod test. Mice were placed on the moving drum of a rotarod apparatus (Accelerating Model, Ugo Basile Biological Research Apparatus), which was then accelerated until mouse fell from the drum onto a plate to stop the timer. Latency to fall was measured in four daily trials over the course of 4 days.
Immunohistochemical staining. Wild-type or SCA3 transgenic mice were anesthetized and perfused transcardially with 4% paraformaldehyde in PBS. Brain was equilibrated in Tissue-Tek embedding medium and frozen in liquid nitrogen. Coronal sections (20 μm) prepared by cryostat sectioning were permeabilized in 0.1% Triton X-100, and incubated at 4° C. for 48 hours with diluted anti-NeuN monoclonal antiserum (Chemicon). Subsequently, sections were washed and incubated with biotinylated horse anti-mouse IgG followed by incubation with avidin-biotin-horseradish peroxidase complex. The sections were then washed and developed in a diaminobenzidine solution. NeuN-positive neurons were visualized and counted by a Leica DM2500 microscope equipped with a Retiga-2000R CCD camera (QImaging) and a 3-axis computer-controlled MAC 600 motorized stage (Ludl Electronics) with the aid of StereoInvestigator software (MBF Bioscience). Each analysis included the processing of 15 brain sections per mouse.
A further series relates to TDP-43 transgenic mice. Description: TDP-43 transgenic mice (ALS): rotarod and grip strength. The format is in vivo.
The target in series [2] is T1, adenosine transporter (ENT1) (Cavia porcellus, UniProt H0V4R7).
T1 sequence (H0V4R7 1-461): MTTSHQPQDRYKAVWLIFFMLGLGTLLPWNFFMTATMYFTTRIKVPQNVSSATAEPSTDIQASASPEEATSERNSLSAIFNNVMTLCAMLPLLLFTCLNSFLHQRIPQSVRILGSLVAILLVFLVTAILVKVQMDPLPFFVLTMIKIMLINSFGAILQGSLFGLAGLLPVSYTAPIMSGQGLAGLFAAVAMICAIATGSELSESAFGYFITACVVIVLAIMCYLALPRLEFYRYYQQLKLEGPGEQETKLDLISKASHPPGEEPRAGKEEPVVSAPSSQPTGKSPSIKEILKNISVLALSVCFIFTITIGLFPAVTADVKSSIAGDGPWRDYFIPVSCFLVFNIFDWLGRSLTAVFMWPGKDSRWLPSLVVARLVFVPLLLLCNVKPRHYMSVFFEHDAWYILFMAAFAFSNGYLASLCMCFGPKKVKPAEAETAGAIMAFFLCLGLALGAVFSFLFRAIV
The series is described as follows: Adenosine transporter (ENT1) radioligand binding assay (3H-NBTI).
Protocol: (§1) Binding of the indicated compounds to A2A adenosine receptor (A2AR) and an adenosine transporter (ENT1) was characterized using standard binding protocols.
(§2) Radioligand binding assays. Radioligand binding assays were performed by MDS Pharma Services Taiwan (Taipei, Taiwan) using standard binding protocols. For A2AR binding assays, membrane proteins collected from HEK293 cells overexpressing human A2AR were incubated in the reaction buffer [50 mM Tris-HCl (pH 7.4), 10 mM MgCl2, 1 mM EDTA, and 2 U/mL adenosine deaminase] containing ^3H-CGS21680 (50 nM) for 90 min at 25° C. Nonspecific binding was assessed in the presence of 50 μM adenosine-5′-N-ethylcarboxamide. […] Binding assays for adenosine transporters were conducted as described earlier. Membrane fractions collected from the cerebral cortex of Duncan Hartley-derived guinea pigs were incubated with ^3H-labeled 6-[(4-nitrobenzyl)thio]-9-β-D-ribofuranosylpurine (NBTI, 0.5 nM) for 30 min at 25° C. in the incubation buffer containing 50 mM Tris-HCl (pH 7.4). […] Reactions were terminated by filtration over GF/B glass fibers and washing with the reaction buffer.

The target of another series is human A2AR (Homo sapiens, UniProt P29274). Description: A2AR radioligand binding assay (3H-CGS21680).
In the next series the test system is NSC34 cells. Description: TDP-43 mislocalization caused by AICAR (AMPK activation), immunostaining. The format is cell-based. Particulars: 30 μM, 1 h pretreatment then AICAR 1 mM for 24 hrs. The method, then:
Cells were pretreated with JMF3464 (30 μM) for one hour, and then treated with AICAR (1 mM, Al) in the presence of JMF3464 for additional 24 hrs. TDP-43 (red) localization was analysed by immunostaining. The locations of nuclei were marked by Hochest (blue).
Cell culture and transfection. The motor neuron cell line (NSC34) was a generous gift from Dr. Neil Cashman (Brain Research Centre, The University of British Columbia, Canada), and cultured in a high-glucose Dulbecco's modified Eagle's medium (DMEM) containing 10% fetal calf serum (FCS), 2 mM L-glutamine, and 1% penicillin/streptomycin (Invitrogen GibcoBRL, Carlsbad, Calif., USA) at 37° C. under 5% CO2.

For series [3], the system named is mice treated with intermittent cold stress. Description: Intermittent cold stress model of fibromyalgia. The format is in vivo. How it is done: FIGS. 10A-C show the analgesic effect of JMF3464 on a mouse model of fibromyalgia. […] Open arrows indicate the time mice received acid injection. Black arrows indicate the time mice received T1-11 (p.o.). […] The analgesic effect of JMF3464 is dose-dependent. The effective dose started from 100 μg/kg (i.p.).
Intermittent cold stress model. The fibromyalgia model was developed by Ueda's group, in which mice were treated with intermittent cold stress for 2 days (Nishiyori and Ueda, 2008 Mol Pain. 4:52). Mice treated with intermittent cold stress developed long-lasting (>2 weeks) mechanical and thermal hyperalgesia. Analgesic effects of JMF3464 (i.p. or p.o.) were tested in these mice 5 days after intermittent cold stress. Mechanical hyperalgesia was assayed by testing the withdrawal response of mouse hindpaws to 0.2-mN von Frey filament stimulation.

Series [4] in a line: Oral bioavailability / pharmacokinetic study in ICR mice. The format is in vivo. The method, then: To measure oral bioavailability of a test compound, blood samples were collected from male ICR mice (6 weeks old; 20-25 g) after oral (10 mg/kg) or intravenous (1 mg/kg) administrations of the test compound. The blood samples collected at the indicated periods were extracted with methanol containing 0.1% formic acid, and then 10 μL of each extracted sample were injected to UPLC-MSMS for quantitation.
Pharmacokinetic Study. The compound was administered as aqueous solutions in normal saline. Male ICR mice were purchased from BioLASCO Taiwan Co., Ltd. To measure oral bioavailability of test compounds (T1-11 and JMF3464), blood samples were collected from male ICR mice (6 weeks old; […]) after oral (10 mg/kg) or intravenous (1 mg/kg) administrations of test compounds. For T1-11, blood samples were collected at 2, 10, 30, 60, 120, 360 minutes after intravenous administration and at 15, 30, 45, 60, 120, 360 minutes after oral administration. For JMF3464, the blood samples were collected at 2, 10, 30, 60, 120, 240, 360, 480 minutes after intravenous administration and at 15, 30, 60, 90, 120, 240, 360, 480 minutes after oral administration. The blood samples were extracted by methanol with 0.1% formic acid, and then 10 μL of the extracted samples were injected to UPLC-MSMS to for quantitation.
The pharmacokinetic parameters were obtained using a pharmacokinetic program WinNonlin, fitting data to a noncompartmental model. […] The total plasma clearance (CL) was calculated as dose/AUCi.v.. The oral bioavailability (F) of the test compound by oral administration was calculated from the AUC0-∞ of the oral dose divided by the AUC0-∞ of the i.v. dose.

In the next series the test system is R6/2 mice. Description: Transgenic mouse model (R6/2) of Huntington's disease: rotarod and lifespan. The format is in vivo. The method, then:
FIGS. 3A-B show the effect of JMF3464 on motor deficits and lifespan. […] Rotarod performance (A) and lifespan (B) of these mice were assessed. * p<0.05. *** p<0.005.
As the A2AR and ENT1 are located in the striatum and have been implicated in striatal function, we hypothesized that chronic treatment with JMF3464 would modulate the progression of HD. We tested the effect of JMF3464 in a transgenic mouse model (R6/2) of HD in which A2AR agonists have beneficial effects.
Animals and drug administration. Male R6/2 mice (Mangiarini et al., 1996 Cell. 87:493-506) and littermate controls were originally obtained from Jackson Laboratories (Bar Harbor, Me., USA), and mated to female control mice (B6CBAFI/J). Offspring were identified by a polymerase chain reaction (PCR) genotyping technique of genomic DNA extracted from tail tissues using primers located in the transgene (5′-[…]-3′; SEQ ID NO: 1, and 5′-GGCTGAGGAAGCTGAGGAG-3′; SEQ ID NO: 2) to ensure that the number of CAG repeats remained approximately 150. […] Body weights of mice were recorded once daily. […]
Rotarod performance. Motor coordination was assessed using a rotarod apparatus (UGO BASILE, Comerio, Italy) at a constant speed (12 rpm) over a period of 2 min (Carter et al., 1999 J Neurosci. 19:3248-3257). […] Latency to fall was recorded automatically. […]

The subject of a further series is PC12 cells. The series is described as follows: Serum deprivation-induced cell death, MTT assay. The format is cell-based, Rat. Conditions: serum-deprived PC12 cells, 24 h. How it is done: Serum-deprived PC12 cells were treated with or without the indicated reagent(s) for 24 h. Cell viability was expressed as a percentage of the results from MTT assays compared to the mean of a serum-containing control group. Data points represent the mean±SEM (n=3˜6).
Rat PC12 cells purchased from American Type Culture Collection (ATCC; Manassas, Va., USA) were maintained in DMEM supplemented with 10% horse serum and 5% FBS and incubated in a CO2 incubator (5%) at 37° C. LIPOFECTAMINE™ 2000 (Invitrogen) was used as a vehicle to transfer plasmids into cells according to the manufacture's protocol. Plasmids were kindly provided by Dr. Pulst (Department of Neurology, University of Utah, USA). Normally, 5 μg of DNA combined with 5 μl of LIPOFECTAMINE™ 2000 was applied to each well of 6-well plates. The plating number was (1˜1.5)×10^6 cells/well. After transfections for 6 h, cells were treated with reagents for another 24 h. Images were taken with a Zeiss Axiovert 200M inverted fluorescence microscope (Göttingen, Germany).
MTT assay. Survival was assessed by 3-(4,5-dimethylthiazol-2-yl)-2,5-diphenyl tetrazolium bromide (MTT) metabolism assay. […] After discarding the medium, DMSO was applied to the well to dissolve formazan crystals, and the absorbances at 570 and 630 nm in each well were measured on a micro-enzyme-linked immunosorbent assay (ELISA) reader.
(In general: Formazan colour is commonly taken as a measure of viable cells.)

[5] abbreviates: 3.7, 1.25, 0.5 and 0.1 mg/kg/day, subcutaneous osmotic pump, vs control mice.

Sequence of human A2AR (P29274 whole entry): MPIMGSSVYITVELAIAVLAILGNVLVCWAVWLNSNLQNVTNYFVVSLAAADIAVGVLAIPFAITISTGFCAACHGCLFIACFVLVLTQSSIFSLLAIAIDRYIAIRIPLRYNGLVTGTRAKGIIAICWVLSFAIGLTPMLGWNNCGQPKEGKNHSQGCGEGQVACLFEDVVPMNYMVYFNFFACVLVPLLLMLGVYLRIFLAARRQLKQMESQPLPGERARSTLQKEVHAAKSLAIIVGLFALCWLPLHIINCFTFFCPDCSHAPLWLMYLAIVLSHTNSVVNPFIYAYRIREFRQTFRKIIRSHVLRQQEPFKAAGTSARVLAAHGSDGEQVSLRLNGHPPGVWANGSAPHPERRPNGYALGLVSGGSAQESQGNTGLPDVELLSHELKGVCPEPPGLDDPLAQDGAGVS
Protocol for human A2AR: as §1, §2

For the molecule `OC[C@H]1O[C@@H](n2cnc3c(NCCc4c[nH]c5ccccc45)ncnc32)[C@H](O)[C@@H]1O` [JMF1907, N^6-[2-(indol-3-yl)ethyl]adenosine], in [1] (daily oral 1 mg per day), the “pontine neuronal death (NeuN staining)” value is “significantly prevented neuronal death in the pontine nuclei; also recorded: significantly alleviated pontine neuronal death” and the rotarod performance result is listed as “significantly improved rotarod performance”. For the same molecule, in the series on TDP-43 transgenic mice (setting [5]), the grip strength result is reported as “statistical significance was reached at all points for all tested doses; also recorded: performed significantly better”; the rotarod performance entry is “statistical significance was reached at all points for 1.5 & 0.5 mg/kg, from 12-21 wk for 0.1 mg/kg, and 10-12 wk for 3.7 mg/kg; also recorded: performed significantly better”. Also, the “dose showing the greatest benefit” value with TDP-43 transgenic mice (rotarod and grip strength) was 1.25 mg/kg. Moreover, the Ki in series [2] was 3.47 µM. This molecule yielded a Ki on human A2AR of 4.39 µM.
Regarding `OC[C@H]1O[C@@H](n2cnc3c(NCc4ccc(Br)s4)ncnc32)[C@H](O)[C@@H]1O` [JMF3464, N^6-[(5-bromothien-2-yl)methyl]adenosine], the TDP-43 mislocalization entry in the series with NSC34 cells is listed as “reduced TDP-43 mislocalization; also recorded: normalized TDP-43 mislocalization”. Moreover, the “rotarod performance / ataxia” value in series [1] (daily 0.3 mg per day) is recorded as “greatly improved the rotarod performance; also recorded: alleviated the ataxia”. Also, the “pontine neuronal death (NeuN staining)” value in series [1] (daily oral 0.3 mg per day) is “significantly ameliorated neuronal death in the pontine nuclei; also recorded: alleviated”. Besides, the “effective dose (start)” value in series [3] (i.p.) is at least 0.1 mg/kg. In addition, the analgesic effect result in [3] (i.p., dose-dependent, von Frey mechanical hyperalgesia) is reported as “showed an analgesic effect”. In addition, the “analgesic effect, oral administration” value in series [3] (p.o. 1 mg/kg) is recorded as “showed an analgesic effect”. Moreover, the “oral absorption relative to T1-11” value in series [4] (JMF3464 vs T1-11) is listed as “more than 6 fold”. Also, in series [4] (male, mouse, plasma, oral 10 mg/kg vs intravenous 1 mg/kg), the bioavailability turned out to be 17.4%. In addition, in the series on R6/2 mice (R6/2 mice from 7 weeks old, 0.11 mg/kg/day, subcutaneous osmotic minipump, 6 weeks), the “motor coordination assessed by rotarod performance” value is given as “counteracted the progressive deterioration in motor coordination”. For the same molecule, the lifespan entry with R6/2 mice (R6/2 mice, sustained (long term) treatment) is “improved”. The Ki in series [2] amounted to 0.05 µM; at human A2AR, 1.7 µM.
As to `OC[C@H]1O[C@@H](n2cnc3c(NCc4ccc(Cl)s4)ncnc32)[C@H](O)[C@@H]1O` [JMF3818, N^6-[(5-Chlorothien-2-yl)methyl]adenosine], the inhibition at 10 µM in [2] (read-out: inhibition of adenosine transporter (ENT1)) is 96%; at human A2AR (read-out: inhibition of A2A receptor), 54%. In addition, the “apoptosis of PC12 cells caused by serum withdrawal” value with PC12 cells was “inhibited the apoptosis of PC12 cells caused by serum withdrawal”.
